Measurements taken from US8592580B2, “Substituted triazinone derivatives” (Sanofi, priority 2008, dated 2013).

Assays:
GSK3β = GSK3β (Homo sapiens, UniProt P49841); experiment: Inhibitory activity against GSK3β (33P-ATP phosphorylation of prephosphorylated GS1 peptide, four protocols); type: biochemical; details: protocol 3: 7.5 μM GS1 peptide, 10 μM ATP, 50 mM Hepes pH 7.2, one hour at room temperature
Description: Inhibitory Activity of the Medicament of the Present Invention Against GSK3β Four different protocols can be used. In a first protocol: 7.5 μM of prephosphorylated GS1 peptide and 10 μM ATP (containing 300,000 cpm of ^33P-ATP) were incubated in 25 mM Tris-HCl, pH 7.5, 0.6 mM DTT, 6 mM MgCl2, 0.6 mM EGTA, 0.05 mg/ml BSA buffer for 1 hour at room temperature in the presence of GSK3beta (total reaction volume: 100 microliters). In a second protocol: 4.1 μM of prephosphorylated GS1 peptide and 42 μM ATP (containing 260,000 cpm ^33P-ATP) were incubated in 80 mM Mes-NaOH, pH 6.5, 1 mM Mg acetate, 0.5 mM EGTA, 5 mM 2-mercaptoethanol, 0.02% Tween 20, 10% glycerol buffer for 2 hours at room temperature in the presence of GSK3beta. In a third protocol: 7.5 μM of prephosphorylated GS1 peptide and 10 μM ATP (containing 300,000 cpm of ^33P-ATP) were incubated in 50 mM Hepes, pH 7.2, 1 mM DTT, 1 mM MgCl2, 1 mM EGTA, 0.01% Tween 20 buffer for one hour at room temperature in the presence of GSK3beta (total reaction volume: 100 microliters). […] Incorporated ^33P radioactivity was determined by liquid scintillation spectrometry. […]

Chain of GSK3β (P49841 whole entry): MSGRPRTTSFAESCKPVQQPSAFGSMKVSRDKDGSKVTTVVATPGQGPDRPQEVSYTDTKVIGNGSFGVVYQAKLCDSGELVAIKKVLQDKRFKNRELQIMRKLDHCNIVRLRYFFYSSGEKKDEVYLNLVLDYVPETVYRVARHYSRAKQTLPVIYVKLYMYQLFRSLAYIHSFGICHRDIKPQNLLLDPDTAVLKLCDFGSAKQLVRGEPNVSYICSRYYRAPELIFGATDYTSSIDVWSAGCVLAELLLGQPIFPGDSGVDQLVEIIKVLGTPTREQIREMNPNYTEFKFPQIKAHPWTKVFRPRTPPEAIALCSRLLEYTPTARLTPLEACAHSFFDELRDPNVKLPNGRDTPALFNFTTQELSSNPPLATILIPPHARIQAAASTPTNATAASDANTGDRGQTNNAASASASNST

Row | IC50 (GSK3β) | melting point | SMILES
1 | 372 nM | 242 to 244 °C | Cn1c(NCC(O)c2ccccc2)nc(-c2ccncc2)nc1=O (racemic) [Compound No. 1, (+/−)-6-(2-Hydroxy-2-phenyl-ethylamino)-1-methyl-4-pyridin-4-yl-1H-[1,3,5]triazin-2-one]
2 | 50 nM | 235 to 237 °C | O=c1nc(-c2ccncc2)nc(NCCc2ccccc2)[nH]1 [compound 5, 6-(2-Phenylethyl)amino-4-pyridin-4-yl-1H-[1,3,5]triazin-2-one]
